Results as given in US6506766B1 (Abbott Laboratories, priority 1998, dated 2003).
Read-outs that look alike come from different tables or passages of the source.

Key:
[1] = biological target: T1, human progesterone receptor-A [PRA] isoform (Homo sapiens, UniProt P06401); test: Radioligand binding with human progesterone receptor cytosol ([3H]-progesterone competition); settings: PRA cytosol expressed in insect SF21 cells, [3H]Prog ~0.8 nM, 4° C. overnight; Ki by Cheng-Prusoff, KL ~4.5 nM; read-out: Ki (nM) PR
T1 construct: host or cells: insect SF21 cells (baculovirus)
T1 sequence (P06401 1-769 isoform P06401-2): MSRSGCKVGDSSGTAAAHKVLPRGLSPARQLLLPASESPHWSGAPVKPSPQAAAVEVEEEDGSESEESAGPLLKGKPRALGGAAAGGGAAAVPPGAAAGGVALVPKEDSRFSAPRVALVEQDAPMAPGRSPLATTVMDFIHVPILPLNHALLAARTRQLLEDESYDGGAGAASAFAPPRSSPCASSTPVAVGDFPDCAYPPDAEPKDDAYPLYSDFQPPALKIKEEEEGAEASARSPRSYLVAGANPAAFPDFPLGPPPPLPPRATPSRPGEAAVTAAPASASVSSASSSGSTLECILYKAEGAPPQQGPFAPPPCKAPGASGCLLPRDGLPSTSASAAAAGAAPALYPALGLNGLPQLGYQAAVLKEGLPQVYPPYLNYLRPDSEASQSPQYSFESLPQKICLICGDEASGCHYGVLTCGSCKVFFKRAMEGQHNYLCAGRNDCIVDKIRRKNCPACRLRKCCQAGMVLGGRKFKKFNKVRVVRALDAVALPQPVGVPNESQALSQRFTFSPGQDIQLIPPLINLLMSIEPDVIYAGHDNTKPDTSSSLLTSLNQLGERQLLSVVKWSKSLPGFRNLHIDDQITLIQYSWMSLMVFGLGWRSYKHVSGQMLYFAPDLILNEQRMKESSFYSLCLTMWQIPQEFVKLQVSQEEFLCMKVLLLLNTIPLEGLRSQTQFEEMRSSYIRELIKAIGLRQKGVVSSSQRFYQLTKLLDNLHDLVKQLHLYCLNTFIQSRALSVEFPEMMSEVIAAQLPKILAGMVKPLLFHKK

[2] = biological target: T2, human glucocorticoid receptor-α [GRX] isoform (Homo sapiens, UniProt P04150); test: Radioligand binding with human glucocorticoid receptor cytosol ([3H]-dexamethasone competition); settings: GRX cytosol expressed in insect SF21 cells, [3H]-Dex ~0.9 nM, 4° C. overnight, Ki by Cheng-Prusoff, KL ~[…]
T2 construct: host or cells: insect SF21 cells (baculovirus)
T2 sequence (P04150 1-777): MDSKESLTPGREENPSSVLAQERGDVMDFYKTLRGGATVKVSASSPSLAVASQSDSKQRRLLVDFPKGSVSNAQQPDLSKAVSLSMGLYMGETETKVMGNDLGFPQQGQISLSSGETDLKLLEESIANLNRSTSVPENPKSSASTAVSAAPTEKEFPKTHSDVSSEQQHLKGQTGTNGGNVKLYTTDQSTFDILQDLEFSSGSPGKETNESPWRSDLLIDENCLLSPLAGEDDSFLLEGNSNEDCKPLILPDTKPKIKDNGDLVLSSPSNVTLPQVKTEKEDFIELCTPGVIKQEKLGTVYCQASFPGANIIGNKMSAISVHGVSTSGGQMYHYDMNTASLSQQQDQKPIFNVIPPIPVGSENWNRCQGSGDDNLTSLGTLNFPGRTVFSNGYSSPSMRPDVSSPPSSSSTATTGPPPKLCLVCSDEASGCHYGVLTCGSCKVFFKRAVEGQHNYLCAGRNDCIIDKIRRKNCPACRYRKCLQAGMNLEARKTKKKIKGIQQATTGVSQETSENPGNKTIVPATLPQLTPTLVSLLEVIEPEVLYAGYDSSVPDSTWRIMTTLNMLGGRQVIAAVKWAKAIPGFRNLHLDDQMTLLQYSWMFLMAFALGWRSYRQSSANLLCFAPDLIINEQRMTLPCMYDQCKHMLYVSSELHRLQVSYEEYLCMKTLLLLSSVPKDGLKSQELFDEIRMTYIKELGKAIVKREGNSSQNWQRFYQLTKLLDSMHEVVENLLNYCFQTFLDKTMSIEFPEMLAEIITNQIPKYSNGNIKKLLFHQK

Ki [1] [nM] | Ki ([2]; read-out: Ki (nM) GR) [nM] | Ki ([2]; Ki (nM) GR) [nM] | SMILES
≥ 10000 | 8.6 |  | COc1cccc2c1-c1ccc3c(c1C(c1ccccc1)O2)C(C)=CC(C)(C)N3 (stereo not drawn) [Example 1, 2,5-Dihydro-10-methoxy-2,2,4-trimethyl-5-phenyl-1H-[1]benzopyrano[3,4-f]quinoline1H-[1]benzopyrano[3,4-f]quinoline]
≥ 10000 | 591 |  | COc1cccc2c1-c1ccc3c(c1C(CC(=O)NC1CC1)O2)C(C)=CC(C)(C)N3 (stereo not drawn) [Example 65, N-Cyclopropyl-2,5-Dihydro-10-methoxy-2,2,4-trimethyl-1H-[1]benzopyrano[3,4-f]quinoline-5-acetamide]
786 | 57 |  | CC1=CC(C)(C)Nc2ccc3c(c21)[C@@H]([C@@H]1C=CCC1)Oc1ccc(O)c(Cl)c1-3 [Example 224]
7330 | 18 |  | COc1cccc2c1-c1ccc3c(c1C(c1ccc(C)c(F)c1)O2)C(C)=CC(C)(C)N3 (stereo not drawn) [Example 51]
> 10000 | 9 |  | COc1cccc2c1-c1ccc3c(c1C(c1cccc(OS(=O)(=O)C(F)(F)F)c1)O2)C(C)=CC(C)(C)N3 (stereo not drawn) [Example 105]
≥ 10000 | 43 |  | COc1cccc2c1-c1ccc3c(c1C(c1cc(C)cc(NC(=O)N(C)C)c1)O2)C(C)=CC(C)(C)N3 (stereo not drawn) [Example 118, N′-[3-(2,5-Dihydro-10-methoxy-2,2,4-trimethyl-1H-1benzopyrano[3,4-f]quinolin-5-yl)-5-methylphenyl]-N,N-dimethylurea]
42 | 0.5 |  | C/C=C\CC1Oc2ccc(O)c(OC)c2-c2ccc3c(c21)C(C)=CC(C)(C)N3 (stereo not drawn) [Example 282, (Z)2,5-Dihydro-9-hydroxy-10-methoxy-2,2,4-trimethyl-5-(2-butenyl)-1H-[1]benzopyrano[3,4-f]quinoline]
382 | 4.4 |  | CC1=CC(C)(C)Nc2ccc3c(c21)C(c1ccccc1)Oc1cccc(Cl)c1-3 (racemic) [Example 310, (+/−)2,5-Dihydro-10-chloro-2,2,4-trimethyl-5-phenyl-1H-[1]benzopyrano[3,4-f]quinoline]
156 | 0.78 |  | CCC1Oc2ccc(O)c(OC)c2-c2ccc3c(c21)C(C)=CC(C)(C)N3 (stereo not drawn) [Example 376, 9-Hydroxy-10-methoxy-5-ethyl-2,2,4-trimethyl-2,5-dihydro-1H-[1]benzopyrano[3,4-f]quinoline]
 | 6.6 |  | CCCC1Oc2cccc(OC)c2-c2ccc3c(c21)C(C)=CC(C)(C)N3 (stereo not drawn) [Example 54, 2,5-Dihydro-10-methoxy-2,2,4-trimethyl-5-propyl-1H-[1]benzopyrano[3,4-f]quinoline]
 | 4190 |  | COc1cccc2c1-c1ccc3c(c1C(CN)O2)C(C)=CC(C)(C)N3 (stereo not drawn) [Example 206A, 2,5-Dihydro-10-methoxy-5-(aminomethyl)-2,2,4-trimethyl-1H-[1]benzopyrano[3,4-f]quinoline]
 | 7100 |  | C=CCC1Oc2cccc(OCc3ccccc3)c2-c2ccc3c(c21)C(C)=CC(C)(C)N3 (stereo not drawn) [Example 447, 10-Benzyloxy-5-(2-propenyl)-2,5-dihydro-2,2,4-trimethyl-1H-[1]benzopyrano[3,4-f]quinoline]
 | 0.68 |  | CCCC1Oc2ccc(O)c(Cl)c2-c2ccc3c(c21)C(C)=CC(C)(C)N3 (stereo not drawn) [Example 411, 2,5-Dihydro-9-hydroxy-10-chloro-2,2,4-trimethyl-5-propyl-1H-[1]benzopyrano[3,4-f]quinoline]
 | 2.7 |  | C#CCC1Oc2cccc(OC)c2-c2ccc3c(c21)C(C)=CC(C)(C)N3 (stereo not drawn) [Example 66, 2,5-Dihydro-10-methoxy-2,2,4-trimethyl-5-(2-propynyl)-1H-[1]benzopyrano[3,4-f]quinoline]
 | 767 |  | COc1c(O)ccc2c1-c1ccc3c(c1[C@@H](C1CCCC1)O2)C(C)=CC(C)(C)N3 [Example 265, (+)(R)5-Cyclopentyl-2,5-dihydro-9-hydroxy-10-methoxy-2,2,4-trimethyl-1H-[1]benzopyrano[3,4-f]quinoline]
 | 24 |  | COc1cccc2c1-c1ccc3c(c1C(C=C(C)C)O2)C(C)=CC(C)(C)N3 (stereo not drawn) [Example 324, 2,5-Dihydro-10-methoxy-5-(2-methylpropenyl)-2,2,4-trimethyl-1H-[1]benzopyrano[3,4-f]quinoline]
≥ 10000 |  |  | COc1cccc2c1-c1ccc3c(c1C(CC1=CCCCC1)O2)C(C)=CC(C)(C)N3 (stereo not drawn) [Example 145, 2,5-Dihydro-10-methoxy-5-(1-cyclohexenylmethyl)-2,2,4-trimethyl-1H-[1]benzopyrano[3,4-f]quinoline]
150 |  |  | COc1c(O)ccc2c1-c1ccc3c(c1C(Cc1cc(F)cc(F)c1)O2)C(C)=CC(C)(C)N3 (stereo not drawn) [Example 382, 2,5-Dihydro-9-hydroxy-10-methoxy-2,2,4-trimethyl-5-(3-5-difluorophenylmethyl)-1H-[1]benzopyrano[3,4-f]quinoline]
1670 |  |  | COc1cccc2c1-c1ccc3c(c1C(CCN(C)C)O2)C(C)=CC(C)(C)N3 (stereo not drawn) [Example 64, 2,5-Dihydro-10-methoxy-2,2,4,N,N-pentamethyl-1H-[1]benzopyrano[3,4-f]quinoline5-ethanamine]
1560 |  |  | COc1cccc2c1-c1ccc3c(c1C(c1cc(Cl)cc(Cl)c1)O2)C(C)=CC(C)(C)N3 (single isomer, unassigned; (-)) [Example 32, (−)-5-(3,5-Dichlorophenyl)-2,5-dihydro-10-methoxy-2,2,4-trimethyl-1H-[1]benzopyrano[3,4-f]quinoline]
11.6 |  |  | C=CCC1Oc2ccc(OC(=O)CCC(=O)N(C)C)c(Cl)c2-c2ccc3c(c21)C(C)=CC(C)(C)N3 (racemic) [Example 421, (+/−)2,5-Dihydro-9-(4-N,N-dimethylamino-4-oxo-butanoyloxy)-10-chloro-2,2,4-trimethyl-5-allyl-1H-[1]benzopyrano[3,4-f]quinoline]
 |  | 1.7 | COc1cccc2c1-c1ccc3c(c1[C@H]([C@@H]1C=CCCC1)O2)C(C)=CC(C)(C)N3 [Example 391, (−)(5S,3′S)2,5-Dihydro-10-methoxy-2,2,4-trimethyl-5-(cyclohexen-3-yl)-1H-[1]benzopyrano[3,4-f]quinoline]
589 |  |  | COc1cccc2c1-c1ccc3c(c1[C@H]([C@H]1C=CCC1)O2)C(C)=CC(C)(C)N3 [Example 393, (−)(5S,3′R)2,5-Dihydro-10-methoxy-2,2,4-trimethyl-5-(cyclopenten-3-yl)-1H-[1]benzopyrano[3,4-f]quinoline]
 | 33 |  | C=CCC1Oc2cccc(C=NO)c2-c2ccc3c(c21)C(C)=CC(C)(C)N3 (stereo not drawn) [Example 446, 10-Carbaldehyde Oxime-5-(2-propenyl)-2,5-dihydro-2,2,4-trimethyl-1H-[1]benzopyrano[3,4-f]quinoline]
≥ 10000 |  |  | C=CCNc1cccc(C2Oc3cccc(OC)c3-c3ccc4c(c32)C(C)=CC(C)(C)N4)c1 (stereo not drawn) [Example 117, 3-(2,5-Dihydro-10-methoxy-2,2,4-trimethyl-1H-[1]benzopyrano[3,4-f]quinolin-5-yl)-N-(2-propenyl)benzenamine]
≥ 10000 |  |  | COc1cccc2c1-c1ccc3c(c1C(CC(C)=O)O2)C(C)=CC(C)(C)N3 (stereo not drawn) [Example 45, 1-(2,5-Dihydro-10-methoxy-2,2,4-trimethyl-1H-[1]benzopyrano[3,4-f]quinolin-5-yl)-2-propanone]
1680 |  |  | CCCCC1Oc2cccc(OC)c2-c2ccc3c(c21)C(C)=CC(C)(C)N3 (stereo not drawn) [Example 20, 5-Butyl-2,5-dihydro-10-methoxy-2,2,4-trimethyl-1H-[1]benzopyrano[3,4-f]quinoline]
